Laboratory results published in US20250051290A1, “NOVEL COMPOUND FOR IMPROVING SLEEP OR USE THEREOF” (Ajou University Industry-Academic Cooperation Foundation, priority 2021, published 2025).

Target: T1, adenosine A1 receptor (Homo sapiens, UniProt P30542)
T1 construct: expressed in transfected cells; cells use mitochondrial aequorin
T1 sequence (P30542 1-326): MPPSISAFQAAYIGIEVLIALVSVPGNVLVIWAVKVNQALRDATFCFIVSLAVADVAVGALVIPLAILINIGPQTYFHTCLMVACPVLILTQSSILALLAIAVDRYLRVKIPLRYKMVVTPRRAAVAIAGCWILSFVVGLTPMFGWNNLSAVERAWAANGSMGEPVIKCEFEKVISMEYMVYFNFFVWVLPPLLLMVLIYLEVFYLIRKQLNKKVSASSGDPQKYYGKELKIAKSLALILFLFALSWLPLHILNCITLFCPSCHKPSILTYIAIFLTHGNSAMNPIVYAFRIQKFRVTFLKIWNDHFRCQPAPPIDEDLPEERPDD
Test: Adenosine A1 receptor agonistic activity, aequorin calcium luminescence in A1-overexpressing cell line
Type: cell-based
Conditions: for activation at 10 µM: compound concentration 10 μM; for activation at 10 µM / activation at 50 µM: read-out: agonistic effect on A1 receptor, response relative to adenosine as 100%; for activation at 50 µM: compound concentration 50 μM
Description: The intracellular endoplasmic reticulum has the function of storing calcium ions and releasing them when necessary. It is responsible for managing and maintaining the overall physiological activities of the human body, such as contracting muscles and promoting hormone secretion by releasing calcium ions. This mechanism has been applied as a universal and accurate method to study the activity of G protein-coupled receptors (GPCRs), and the method of measuring calcium ions, which are the final measurement target, has been developed into various methods including fluorescent substances. The present inventors tried to use chemical luminescence through aequorin to evaluate the agonistic efficacy of the compounds subject to development. To this end, a cell line overexpressing an adenosine receptor (adenosine receptor subtype 1, A1), which targets calcium ions released from the intracellular endoplasmic reticulum, was used, and the concentration of calcium ions released instantaneously was measured using a cell function screening system based on the luminescence phenomenon through mitochondrial aequorin.
Cells into which an A1 receptor gene was inserted through transformation were washed with 10 ml of PBS after 48 hours of culture, and then the cells were isolated and centrifuged at 1,000×g for 5 minutes. The precipitated cells were treated with a basic buffer solution (Dulbecco's Modified Eagle's Medium (DMEM)/HAM's F12 without phenol red, with L-glutamate, 15 mM hydroxyethyl piperazine ethane sulfonic acid (HEPES), pH 7.0, 0.1% bovine serum albumin (BSA)), coelenterazine h was added to a concentration of 2×10^6 cells/ml, and then light was blocked. The cells were allowed to react with coelenterazine h using a rotator at room temperature. After four hours of reaction, the reaction mixture was diluted 10 times with a basic buffer solution to adjust the concentration to 2×10^5 cells/ml and allowed to stand for 60 minutes under the same conditions as before.
To confirm the agonistic activity of the novel compounds of the present invention, the previously prepared cells were plated in a 96-well black plate (Corning 3915) containing adenosine ([…]-4.57 nM) at 50 µl/well (5,000 cells/well), and then the resulting signal value was measured. To confirm the calcium signal changing activity (agonistic activity) of the compounds subject to development, the prepared cells were plated in a 96-well plate containing 50 μl/well of the compound sample at 50 μl/well and allowed to react for 30 minutes. Thereafter, 50 μl/well of adenosine (3 μM) was injected to confirm the reaction. The light emitted due to cell activity was measured and recorded using a Mithras 960 MultiLabel Reader. The measured value (area under the curve (AUC) integrated signal) was expressed in relative light units (RLU). To ensure the accuracy of the experimental data, the experiment was performed at at least two concentrations ([…] and 50 μM) with three samples of the same compound, and EC50 values calculated when necessary were compared and analyzed with the values obtained through at least three experiments.
As a result, the results shown in Table 1 below and FIG. 5 were obtained. Each value was obtained by assuming the response of […] adenosine as 100% and converting the ratio into percentage. The greater the value, the greater the agonistic effect.

SMILES | activation at 10 µM | activation at 50 µM | EC50 (dose-response, FIG. 5)
CC(Nc1nc(N2CCCC2)c2ccccc2n1)c1ccccc1 (stereo not drawn) [AR-023, N-(1-phenylethyl)-4-(pyrrolidin-1-yl)quinazolin-2-amine] | 1.7% | 47.8% | –
c1coc(CNc2nc(N3CCCC3)c3ccccc3n2)c1 [AR-015, N-(furan-2-ylmethyl)-4-(pyrrolidin-1-yl)quinazolin-2-amine] | 28.6% | 219% | –
CCNc1nc(NCc2ccco2)c2ccccc2n1 [AR-001, N^2-ethyl-N^4-(furan-2-ylmethyl)quinazoline-2,4-diamine] | 23.7% | 246% | –
c1coc(CNc2nc(NCc3ccco3)c3ccccc3n2)c1 [AR-005, N^2,N^4-bis(furan-2-ylmethyl)quinazoline-2,4-diamine] | 0.2% | 251% | –
CCNc1nc(N2CCCC2)c2cc(OC)c(OC)cc2n1 [AR-020, N-ethyl-6,7-dimethoxy-4-(pyrrolidin-1-yl)quinazolin-2-amine] | 0.3% | -0.7% | –
CCNc1nc(N2CCCC2)c2cc(O)c(O)cc2n1 [AR-027, 2-(Ethylamino)-4-(pyrrolidin-1-yl)quinazoline-6,7-diol] | 0.2% | 1.1% | –
COc1cc2nc(NCc3ccco3)nc(N(C)C)c2cc1OC [AR-019, N^2-(furan-2-ylmethyl)-6,7-dimethoxy-N^4,N^4-dimethylquinazoline-2,4-diamine] | -0.3% | 0% | –
CCNc1nc(NCc2ccco2)c2cc(OC)c(OC)cc2n1 [AR-018, N^2-ethyl-N^4-(furan-2-ylmethyl)-6,7-dimethoxyquinazoline-2,4-diamine] | 1% | 0% | –
c1ccc2c(N3CCCC3)nc(NC3CC3)nc2c1 [AR-016, N-cyclopropyl-4-(pyrrolidin-1-yl)quinazolin-2-amine] | 3.7% | 101% | –
CN(C)c1nc(NCc2ccco2)nc2ccccc12 [AR-002, N^2-(furan-2-ylmethyl)-N^4,N^4-dimethylquinazoline-2,4-diamine] | -1.5% | 1.3% | –
CCNc1nc(NC(C)c2ccccc2)c2ccccc2n1 (stereo not drawn) [AR-011, N^2-ethyl-N^4-(1-phenylethyl)quinazoline-2,4-diamine] | -0.4% | 42.8% | –
CCNc1nc(NCc2ccco2)c2cc(O)c(O)cc2n1 [AR-028, 2-(Ethylamino)-4-((furan-2-ylmethyl)amino)quinazoline-6,7-diol] | -0.3% | -1.1% | –
CCNc1nc(N(C)C)c2ccccc2n1 [AR-008, N^2-ethyl-N^4,N^4-dimethylquinazoline-2,4-diamine] | 0.4% | 2.6% | –
c1ccc2c(N3CCCC3)nc(NCc3ccc4c(c3)OCO4)nc2c1 [AR-004, N-(benzo[d][1,3]dioxol-5-ylmethyl)-4-(pyrrolidin-1-yl)quinazolin-2-amine] | -0.7% | -0.8% | –
O=C(NCCNc1nc(N2CCCC2)c2ccccc2n1)c1ccc(O)c(O)c1 [AR-024, 3,4-Dihydroxy-N-(2-((4-(pyrrolidin-1-yl)quinazolin-2-yl)amino)ethyl)benzamide] | -0.7% | 0.1% | –
c1coc(CNc2nc(NC3CC3)nc3ccccc23)c1 [AR-006, N^2-cyclopropyl-N^4-(furan-2-ylmethyl)quinazoline-2,4-diamine] | 170% | 289% | 6.95 µM
Oc1cc2nc(NC3CC3)nc(N3CCCC3)c2cc1O [AR-025, 2-(Cyclopropylamino)-4-(pyrrolidin-1-yl)quinazoline-6,7-diol] | -1.6% | 0.4% | –
c1coc(CNc2nc(NCc3ccc4c(c3)OCO4)nc3ccccc23)c1 [AR-007, N^2-(benzo[d][1,3]dioxol-5-ylmethyl)-N^4-(furan-2-ylmethyl)quinazoline-2,4-diamine] | -1.1% | 12% | –
CN(C)c1nc(NCc2ccc3c(c2)OCO3)nc2ccccc12 [AR-010, N^2-(benzo[d][1,3]dioxol-5-ylmethyl)-N^4,N^4-dimethylquinazoline-2,4-diamine] | 2.1% | 240% | –
CN(C)c1nc(N2CCCC2)c2ccccc2n1 [AR-022, N,N-dimethyl-4-(pyrrolidin-1-yl)quinazolin-2-amine] | -0.5% | 0% | –
CN(C)c1nc(NC2CC2)nc2ccccc12 [AR-009, N^2-cyclopropyl-N^4,N^4-dimethylquinazoline-2,4-diamine] | -1.2% | 14.6% | –
COc1cc2nc(NC3CC3)nc(N3CCCC3)c2cc1OC [AR-017, N-cyclopropyl-6,7-dimethoxy-4-(pyrrolidin-1-yl)quinazolin-2-amine] | 0.6% | 0.9% | –
CC(Nc1nc(NCc2ccco2)nc2ccccc12)c1ccccc1 (stereo not drawn) [AR-012, N^2-(furan-2-ylmethyl)-N^4-(1-phenylethyl)quinazoline-2,4-diamine] | -0.6% | 6.4% | –
CCNc1nc(N2CCCC2)c2ccccc2n1 [AR-014, N-ethyl-4-(pyrrolidin-1-yl)quinazolin-2-amine] | -0.9% | 25.1% | –
CN(C)c1nc(NCc2ccco2)nc2cc(O)c(O)cc12 [AR-026, 4-(Dimethylamino)-2-((furan-2-ylmethyl)amino)quinazoline-6,7-diol] | -0.6% | 0% | –
c1ccc2c(N3CCCC3)nc(N3CCCC3)nc2c1 [AR-021, 2,4-di(pyrrolidin-1-yl)quinazoline] | 1.8% | 0.1% | –
CC(Nc1nc(NCc2ccc3c(c2)OCO3)nc2ccccc12)c1ccccc1 (stereo not drawn) [AR-013, N^2-(benzo[d][1,3]dioxol-5-ylmethyl)-N^4-(1-phenylethyl)quinazoline-2,4-diamine] | 0.8% | -0.4% | –
CC(Nc1nc(NC2CC2)nc2ccccc12)c1ccccc1 (stereo not drawn) [AR-003, N^2-cyclopropyl-N^4-(1-phenylethyl)quinazoline-2,4-diamine] | -1.1% | 3.9% | –
